The kinase profiling compilation of Christmann-Franck et al. (2016)

Columns and labels:
Assay in all cases: KINOMEscan competition binding
Conditions in all cases: compound 10.0 µM
RIOK3 (human) = RIOK3 (human) (UniProt O14730)
CDKL3 (human) = CDKL3 (human) (UniProt Q8IVW4)
SIK1 (human) = SIK1 (human) (UniProt P57059)
ZAP70 (human) = ZAP70 (human) (UniProt P43403)
SBK1 (human) = SBK1 (human) (UniProt Q52WX2)
GRK7 (human) = GRK7 (human) (UniProt Q8WTQ7)
EPHA6 (human) = EPHA6 (human) (UniProt Q9UF33)
ERBB3 (human) = ERBB3 (human) (UniProt P21860)
TBK1 (human) = TBK1 (human) (UniProt Q9UHD2)
AKT3 (human) = AKT3 (human) (UniProt Q9Y243)
PIK3CD (human) = PIK3CD (human) (UniProt O00329)
TAOK3 (human) = TAOK3 (human) (UniProt Q9H2K8)
Sequence of TAOK3 (human) (Q9H2K8 whole entry, looked up): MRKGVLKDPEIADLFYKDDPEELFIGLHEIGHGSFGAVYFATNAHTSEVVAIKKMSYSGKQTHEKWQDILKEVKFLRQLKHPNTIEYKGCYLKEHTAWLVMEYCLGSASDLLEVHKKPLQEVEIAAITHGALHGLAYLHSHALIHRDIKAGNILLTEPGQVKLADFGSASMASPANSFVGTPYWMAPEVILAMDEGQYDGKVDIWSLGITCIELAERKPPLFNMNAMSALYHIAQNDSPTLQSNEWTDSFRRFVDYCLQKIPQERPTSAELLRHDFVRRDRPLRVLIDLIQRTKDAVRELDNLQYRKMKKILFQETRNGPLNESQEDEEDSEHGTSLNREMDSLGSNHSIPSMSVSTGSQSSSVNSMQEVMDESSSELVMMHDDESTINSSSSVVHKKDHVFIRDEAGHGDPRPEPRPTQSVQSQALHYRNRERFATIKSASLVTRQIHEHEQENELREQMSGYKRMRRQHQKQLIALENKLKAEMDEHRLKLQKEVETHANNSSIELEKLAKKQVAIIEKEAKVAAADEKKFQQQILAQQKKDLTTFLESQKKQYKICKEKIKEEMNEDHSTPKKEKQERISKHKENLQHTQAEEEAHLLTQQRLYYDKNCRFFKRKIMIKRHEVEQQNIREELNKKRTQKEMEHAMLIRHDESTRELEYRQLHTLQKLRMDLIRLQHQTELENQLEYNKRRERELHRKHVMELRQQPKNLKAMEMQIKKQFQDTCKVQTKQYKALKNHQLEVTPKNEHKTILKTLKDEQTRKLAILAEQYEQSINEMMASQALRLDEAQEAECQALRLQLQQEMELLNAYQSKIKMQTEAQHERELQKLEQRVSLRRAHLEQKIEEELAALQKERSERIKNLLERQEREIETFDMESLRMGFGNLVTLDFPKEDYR

MYO3B (human) = MYO3B (human) (UniProt Q8WXR4)
MAST1 (human) = MAST1 (human) (UniProt Q9Y2H9)
DAPK2 (human) = DAPK2 (human) (UniProt Q9UIK4)
Sequence of DAPK2 (human) (Q9UIK4 whole entry, looked up): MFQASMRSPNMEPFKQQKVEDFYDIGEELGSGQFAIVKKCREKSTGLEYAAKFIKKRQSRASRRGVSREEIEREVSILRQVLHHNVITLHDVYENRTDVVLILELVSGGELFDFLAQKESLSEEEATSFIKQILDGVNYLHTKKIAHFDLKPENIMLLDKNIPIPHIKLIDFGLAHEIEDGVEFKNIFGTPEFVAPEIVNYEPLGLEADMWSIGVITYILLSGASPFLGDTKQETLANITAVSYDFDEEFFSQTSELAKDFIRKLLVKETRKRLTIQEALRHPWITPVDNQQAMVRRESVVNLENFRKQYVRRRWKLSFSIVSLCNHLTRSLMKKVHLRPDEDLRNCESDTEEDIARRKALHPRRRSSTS

SRPK3 (human) = SRPK3 (human) (UniProt Q9UPE1)
NEK1 (human) = NEK1 (human) (UniProt Q96PY6)
CSNK1A1 (human) = CSNK1A1 (human) (UniProt P48729)
MAK (human) = MAK (human) (UniProt P20794)
Sequence of MAK (human) (P20794 whole entry, looked up): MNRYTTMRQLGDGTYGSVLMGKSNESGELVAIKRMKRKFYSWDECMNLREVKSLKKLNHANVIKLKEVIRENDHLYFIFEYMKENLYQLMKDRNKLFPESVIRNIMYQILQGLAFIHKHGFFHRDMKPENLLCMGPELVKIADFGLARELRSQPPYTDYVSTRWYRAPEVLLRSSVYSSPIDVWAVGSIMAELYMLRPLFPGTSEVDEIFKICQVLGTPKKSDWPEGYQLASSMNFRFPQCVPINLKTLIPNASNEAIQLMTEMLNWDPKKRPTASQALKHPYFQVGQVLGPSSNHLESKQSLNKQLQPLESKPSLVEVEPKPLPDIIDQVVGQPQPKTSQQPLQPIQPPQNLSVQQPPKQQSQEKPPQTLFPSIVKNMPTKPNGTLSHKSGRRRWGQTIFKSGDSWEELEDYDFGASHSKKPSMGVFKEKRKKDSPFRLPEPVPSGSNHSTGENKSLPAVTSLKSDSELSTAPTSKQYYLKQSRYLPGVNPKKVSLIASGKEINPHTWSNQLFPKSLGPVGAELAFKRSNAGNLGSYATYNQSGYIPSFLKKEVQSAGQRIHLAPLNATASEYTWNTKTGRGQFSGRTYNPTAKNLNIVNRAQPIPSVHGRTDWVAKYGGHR

INSR (human) = INSR (human) (UniProt P06213)
Sequence of INSR (human) (P06213 whole entry, looked up): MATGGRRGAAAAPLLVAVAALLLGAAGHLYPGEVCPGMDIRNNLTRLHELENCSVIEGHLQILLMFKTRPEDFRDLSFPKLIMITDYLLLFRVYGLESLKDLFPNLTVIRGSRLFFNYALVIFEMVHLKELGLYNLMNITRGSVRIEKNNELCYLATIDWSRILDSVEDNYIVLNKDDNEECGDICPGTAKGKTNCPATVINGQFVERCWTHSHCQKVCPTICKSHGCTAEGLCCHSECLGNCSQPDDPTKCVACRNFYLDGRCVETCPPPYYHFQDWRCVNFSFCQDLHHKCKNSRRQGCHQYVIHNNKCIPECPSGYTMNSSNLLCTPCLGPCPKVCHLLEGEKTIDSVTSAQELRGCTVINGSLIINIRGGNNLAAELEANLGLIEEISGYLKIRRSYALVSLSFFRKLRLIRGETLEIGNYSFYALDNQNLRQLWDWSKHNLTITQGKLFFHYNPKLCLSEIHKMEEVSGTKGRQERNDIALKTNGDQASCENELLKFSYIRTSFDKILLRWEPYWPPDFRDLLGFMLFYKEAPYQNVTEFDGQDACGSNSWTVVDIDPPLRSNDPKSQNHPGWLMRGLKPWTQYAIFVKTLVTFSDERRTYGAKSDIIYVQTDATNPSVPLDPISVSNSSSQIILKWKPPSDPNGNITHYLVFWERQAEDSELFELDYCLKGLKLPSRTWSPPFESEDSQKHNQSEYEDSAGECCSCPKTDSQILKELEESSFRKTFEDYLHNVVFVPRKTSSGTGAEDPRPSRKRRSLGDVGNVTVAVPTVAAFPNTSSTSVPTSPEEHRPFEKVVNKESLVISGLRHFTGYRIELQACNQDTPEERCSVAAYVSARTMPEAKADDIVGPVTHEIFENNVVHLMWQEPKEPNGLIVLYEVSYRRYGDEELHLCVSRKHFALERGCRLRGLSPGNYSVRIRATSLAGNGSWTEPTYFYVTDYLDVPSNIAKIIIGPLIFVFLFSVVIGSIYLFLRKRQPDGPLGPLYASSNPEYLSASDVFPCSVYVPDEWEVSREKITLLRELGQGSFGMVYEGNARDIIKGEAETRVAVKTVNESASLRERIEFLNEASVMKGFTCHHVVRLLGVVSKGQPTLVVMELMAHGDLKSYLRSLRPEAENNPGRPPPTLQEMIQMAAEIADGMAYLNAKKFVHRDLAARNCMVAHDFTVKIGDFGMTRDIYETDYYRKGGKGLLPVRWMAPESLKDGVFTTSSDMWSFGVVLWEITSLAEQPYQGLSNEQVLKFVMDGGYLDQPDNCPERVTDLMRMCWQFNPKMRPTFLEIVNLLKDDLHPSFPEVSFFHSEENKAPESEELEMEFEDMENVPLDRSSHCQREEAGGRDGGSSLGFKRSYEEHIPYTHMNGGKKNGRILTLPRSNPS

NEK2 (human) = NEK2 (human) (UniProt P51955)
Sequence of NEK2 (human) (P51955 whole entry, looked up): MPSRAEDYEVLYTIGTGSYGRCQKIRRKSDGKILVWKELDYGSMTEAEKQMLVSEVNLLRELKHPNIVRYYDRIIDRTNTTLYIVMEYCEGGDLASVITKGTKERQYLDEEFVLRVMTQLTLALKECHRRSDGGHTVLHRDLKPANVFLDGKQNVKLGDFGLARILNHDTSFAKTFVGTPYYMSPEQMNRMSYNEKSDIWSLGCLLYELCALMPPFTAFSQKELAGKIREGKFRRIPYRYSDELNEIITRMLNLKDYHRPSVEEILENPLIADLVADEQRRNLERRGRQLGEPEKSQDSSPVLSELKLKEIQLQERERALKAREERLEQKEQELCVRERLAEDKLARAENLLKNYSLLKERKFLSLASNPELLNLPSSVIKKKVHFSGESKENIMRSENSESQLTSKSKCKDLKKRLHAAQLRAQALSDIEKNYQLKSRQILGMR

ICK (human) = ICK (human) (UniProt Q9UPZ9)
EPHA4 (human) = EPHA4 (human) (UniProt P54764)
STK17B (human) = STK17B (human) (UniProt O94768)
MAPK14 (human) = MAPK14 (human) (UniProt Q16539)
ERN1 (human) = ERN1 (human) (UniProt O75460)
MAP4K2 (human) = MAP4K2 (human) (UniProt Q12851)
Sequence of MAP4K2 (human) (Q12851 whole entry, looked up): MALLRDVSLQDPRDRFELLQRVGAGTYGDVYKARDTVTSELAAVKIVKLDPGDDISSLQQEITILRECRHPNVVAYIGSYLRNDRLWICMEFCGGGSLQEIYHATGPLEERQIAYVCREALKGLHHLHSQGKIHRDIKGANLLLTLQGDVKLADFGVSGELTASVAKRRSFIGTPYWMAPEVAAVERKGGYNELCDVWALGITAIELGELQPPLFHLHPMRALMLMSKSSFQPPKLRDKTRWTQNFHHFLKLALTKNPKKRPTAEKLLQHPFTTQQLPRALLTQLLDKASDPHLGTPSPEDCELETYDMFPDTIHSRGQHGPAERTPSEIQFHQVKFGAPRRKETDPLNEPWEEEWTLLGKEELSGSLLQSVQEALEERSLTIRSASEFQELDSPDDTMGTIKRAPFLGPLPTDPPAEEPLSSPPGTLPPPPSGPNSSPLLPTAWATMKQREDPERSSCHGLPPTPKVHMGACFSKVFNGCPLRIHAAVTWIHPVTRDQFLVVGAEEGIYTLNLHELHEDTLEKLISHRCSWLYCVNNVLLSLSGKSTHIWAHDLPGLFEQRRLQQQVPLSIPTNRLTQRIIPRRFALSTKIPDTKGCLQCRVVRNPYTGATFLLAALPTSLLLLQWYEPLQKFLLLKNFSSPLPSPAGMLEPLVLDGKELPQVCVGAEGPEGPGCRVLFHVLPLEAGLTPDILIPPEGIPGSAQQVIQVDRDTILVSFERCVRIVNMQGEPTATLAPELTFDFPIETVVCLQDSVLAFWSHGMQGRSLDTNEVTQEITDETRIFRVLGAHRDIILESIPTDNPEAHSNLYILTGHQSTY

[1] = tested on: PIK3CA (human), P42336 [H1047L]
PIM2 (human) = PIM2 (human) (UniProt Q9P1W9)
PKN3 (M.tuberculosis) = PKN3 (M.tuberculosis) (UniProt Q6P5Z2)
PRPF4B (human) = PRPF4B (human) (UniProt Q13523)
PRKX (human) = PRKX (human) (UniProt P51817)
DDR1 (human) = DDR1 (human) (UniProt Q08345)
AURKA (human) = AURKA (human) (UniProt O14965)
NUAK2 (human) = NUAK2 (human) (UniProt Q9H093)
BRAF (human) = BRAF (human) (UniProt P15056)
[2] = tested on: ABL1 (human), P00519 [F317I]

Sequence of SBK1 (human) (Q52WX2 whole entry, looked up): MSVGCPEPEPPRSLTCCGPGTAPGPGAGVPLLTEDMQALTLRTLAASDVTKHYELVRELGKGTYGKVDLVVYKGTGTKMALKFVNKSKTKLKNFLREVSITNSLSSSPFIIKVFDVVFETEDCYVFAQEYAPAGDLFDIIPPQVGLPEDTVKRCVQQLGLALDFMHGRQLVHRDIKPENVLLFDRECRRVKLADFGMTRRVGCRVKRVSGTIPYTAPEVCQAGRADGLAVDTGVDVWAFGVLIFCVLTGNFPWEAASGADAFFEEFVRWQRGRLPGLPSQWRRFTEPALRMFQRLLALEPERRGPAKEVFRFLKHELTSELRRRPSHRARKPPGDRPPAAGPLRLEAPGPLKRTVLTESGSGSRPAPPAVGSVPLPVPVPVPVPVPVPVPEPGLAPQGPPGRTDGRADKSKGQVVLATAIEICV

**Q.** Which results are given for `CCN1CCN(Cc2ccc(NC(=O)c3ccc(C)c(/C=C/c4cnc5[nH]ccc5c4OC)c3)cc2C(F)(F)F)CC1`?
**A.** kinase still bound, per cent of control (RIOK3 (human)): 0.35%; kinase still bound, per cent of control (CDKL3 (human)): 4%; kinase still bound, per cent of control (SIK1 (human)): 0.9%; kinase still bound, per cent of control (ZAP70 (human)): 52%; kinase still bound, per cent of control (SBK1 (human)): 57%; kinase still bound, per cent of control (GRK7 (human)): 77%; kinase still bound, per cent of control (EPHA6 (human)): 0%; kinase still bound, per cent of control (ERBB3 (human)): 100%; kinase still bound, per cent of control (TBK1 (human)): 55%; kinase still bound, per cent of control (AKT3 (human)): 100%; kinase still bound, per cent of control (PIK3CD (human)): 78%; kinase still bound, per cent of control (TAOK3 (human)): 0%; kinase still bound, per cent of control (MYO3B (human)): 40%; kinase still bound, per cent of control (MAST1 (human)): 100%; kinase still bound, per cent of control (DAPK2 (human)): 100%; kinase still bound, per cent of control (SRPK3 (human)): 13%; kinase still bound, per cent of control (NEK1 (human)): 89%; kinase still bound, per cent of control (CSNK1A1 (human)): 87%; kinase still bound, per cent of control (MAK (human)): 100%; kinase still bound, per cent of control (INSR (human)): 79%; kinase still bound, per cent of control (NEK2 (human)): 100%; kinase still bound, per cent of control (ICK (human)): 99%; kinase still bound, per cent of control (EPHA4 (human)): 0%; kinase still bound, per cent of control (STK17B (human)): 1%; kinase still bound, per cent of control (MAPK14 (human)): 0%; kinase still bound, per cent of control (ERN1 (human)): 72%; kinase still bound, per cent of control (MAP4K2 (human)): 0%; kinase still bound, per cent of control [1]: 100%; kinase still bound, per cent of control (PIM2 (human)): 100%; kinase still bound, per cent of control (PKN3 (M.tuberculosis)): 89%; kinase still bound, per cent of control (PRPF4B (human)): 12%; kinase still bound, per cent of control (PRKX (human)): 75%; kinase still bound, per cent of control (DDR1 (human)): 0.15%; kinase still bound, per cent of control (AURKA (human)): 97%; kinase still bound, per cent of control (NUAK2 (human)): 95%

**Q.** Which results are given for `CCOc1cc(N2CCC(O)CC2)ccc1Nc1ncc2c(n1)N(C)c1ccccc1C(=O)N2C`?
**A.** kinase still bound, per cent of control (RIOK3 (human)): 100%; kinase still bound, per cent of control (CDKL3 (human)): 100%; kinase still bound, per cent of control (SIK1 (human)): 100%; kinase still bound, per cent of control (ZAP70 (human)): 100%; kinase still bound, per cent of control (SBK1 (human)): 100%; kinase still bound, per cent of control (GRK7 (human)): 100%; kinase still bound, per cent of control (EPHA6 (human)): 100%; kinase still bound, per cent of control (ERBB3 (human)): 100%; kinase still bound, per cent of control (TBK1 (human)): 100%; kinase still bound, per cent of control (BRAF (human)): 100%; kinase still bound, per cent of control (AKT3 (human)): 100%; kinase still bound, per cent of control (PIK3CD (human)): 100%; kinase still bound, per cent of control (TAOK3 (human)): 100%; kinase still bound, per cent of control (MYO3B (human)): 100%; kinase still bound, per cent of control (MAST1 (human)): 100%; kinase still bound, per cent of control (DAPK2 (human)): 100%; kinase still bound, per cent of control (SRPK3 (human)): 100%; kinase still bound, per cent of control (NEK1 (human)): 100%; kinase still bound, per cent of control (MAK (human)): 100%; kinase still bound, per cent of control (INSR (human)): 100%; kinase still bound, per cent of control (NEK2 (human)): 100%; kinase still bound, per cent of control (ICK (human)): 100%; kinase still bound, per cent of control (EPHA4 (human)): 100%; kinase still bound, per cent of control (STK17B (human)): 100%; kinase still bound, per cent of control (MAPK14 (human)): 100%; kinase still bound, per cent of control (ERN1 (human)): 100%; kinase still bound, per cent of control (MAP4K2 (human)): 100%; kinase still bound, per cent of control [1]: 100%; kinase still bound, per cent of control (PIM2 (human)): 100%; kinase still bound, per cent of control (PRPF4B (human)): 100%; kinase still bound, per cent of control (PRKX (human)): 100%; kinase still bound, per cent of control [2]: 30%; kinase still bound, per cent of control (DDR1 (human)): 100%; kinase still bound, per cent of control (AURKA (human)): 100%; kinase still bound, per cent of control (NUAK2 (human)): 100%

**Q.** With `CC1=C(C(=O)Nc2cc3cn[nH]c3cc2F)C(c2ccc(C(F)(F)F)cc2)CC(=O)N1` (stereo not given) as the compound, how does the kinase still bound, per cent of control (RIOK3 (human)) read?
**A.** Its kinase still bound, per cent of control is 100%.

**Q.** And the kinase still bound, per cent of control (CDKL3 (human))?
**A.** The kinase still bound, per cent of control was 78%.

**Q.** And the kinase still bound, per cent of control (SIK1 (human))?
**A.** Its kinase still bound, per cent of control is 77%.

**Q.** What about the kinase still bound, per cent of control (ZAP70 (human)) of the same compound?
**A.** Its kinase still bound, per cent of control is 100%.

**Q.** And the kinase still bound, per cent of control (SBK1 (human))?
**A.** The kinase still bound, per cent of control was 78%.

**Q.** What about the kinase still bound, per cent of control (GRK7 (human)) of the same compound?
**A.** The kinase still bound, per cent of control was 75%.

**Q.** What about the kinase still bound, per cent of control (EPHA6 (human)) of the same compound?
**A.** The kinase still bound, per cent of control was 95%.

**Q.** And the kinase still bound, per cent of control (ERBB3 (human))?
**A.** Its kinase still bound, per cent of control is 92%.

**Q.** What about the kinase still bound, per cent of control (TBK1 (human)) of the same compound?
**A.** The kinase still bound, per cent of control was 82%.

**Q.** And the kinase still bound, per cent of control (AKT3 (human))?
**A.** Its kinase still bound, per cent of control is 40%.

**Q.** And the kinase still bound, per cent of control (PIK3CD (human))?
**A.** Its kinase still bound, per cent of control is 98%.

**Q.** What about the kinase still bound, per cent of control (TAOK3 (human)) of the same compound?
**A.** The kinase still bound, per cent of control was 96%.

**Q.** What about the kinase still bound, per cent of control (MYO3B (human)) of the same compound?
**A.** The kinase still bound, per cent of control was 100%.

**Q.** What about the kinase still bound, per cent of control (MAST1 (human)) of the same compound?
**A.** Its kinase still bound, per cent of control is 77%.

**Q.** And the kinase still bound, per cent of control (DAPK2 (human))?
**A.** The kinase still bound, per cent of control was 92%.

**Q.** What about the kinase still bound, per cent of control (SRPK3 (human)) of the same compound?
**A.** Its kinase still bound, per cent of control is 98%.

**Q.** And the kinase still bound, per cent of control (NEK1 (human))?
**A.** The kinase still bound, per cent of control was 91%.

**Q.** And the kinase still bound, per cent of control (CSNK1A1 (human))?
**A.** Its kinase still bound, per cent of control is 86%.

**Q.** What about the kinase still bound, per cent of control (MAK (human)) of the same compound?
**A.** Its kinase still bound, per cent of control is 100%.

**Q.** What about the kinase still bound, per cent of control (INSR (human)) of the same compound?
**A.** The kinase still bound, per cent of control was 96%.

**Q.** What about the kinase still bound, per cent of control (NEK2 (human)) of the same compound?
**A.** Its kinase still bound, per cent of control is 100%.

**Q.** What about the kinase still bound, per cent of control (ICK (human)) of the same compound?
**A.** The kinase still bound, per cent of control was 79%.

**Q.** What about the kinase still bound, per cent of control (EPHA4 (human)) of the same compound?
**A.** Its kinase still bound, per cent of control is 78%.

**Q.** And the kinase still bound, per cent of control (STK17B (human))?
**A.** The kinase still bound, per cent of control was 100%.

**Q.** And the kinase still bound, per cent of control (MAPK14 (human))?
**A.** Its kinase still bound, per cent of control is 100%.

**Q.** What about the kinase still bound, per cent of control (ERN1 (human)) of the same compound?
**A.** Its kinase still bound, per cent of control is 71%.

**Q.** What about the kinase still bound, per cent of control (MAP4K2 (human)) of the same compound?
**A.** The kinase still bound, per cent of control was 96%.

**Q.** What about the kinase still bound, per cent of control [1] of the same compound?
**A.** Its kinase still bound, per cent of control is 83%.

**Q.** And the kinase still bound, per cent of control (PIM2 (human))?
**A.** Its kinase still bound, per cent of control is 100%.

**Q.** And the kinase still bound, per cent of control (PKN3 (M.tuberculosis))?
**A.** Its kinase still bound, per cent of control is 92%.

**Q.** What about the kinase still bound, per cent of control (PRPF4B (human)) of the same compound?
**A.** The kinase still bound, per cent of control was 86%.

**Q.** What about the kinase still bound, per cent of control (PRKX (human)) of the same compound?
**A.** Its kinase still bound, per cent of control is 14%.

**Q.** What about the kinase still bound, per cent of control (DDR1 (human)) of the same compound?
**A.** The kinase still bound, per cent of control was 100%.

**Q.** And the kinase still bound, per cent of control (AURKA (human))?
**A.** The kinase still bound, per cent of control was 46%.

**Q.** And the kinase still bound, per cent of control (NUAK2 (human))?
**A.** The kinase still bound, per cent of control was 6%.
